These are literature values, as cited in US20260183237A1, “NANOEMULSION WITHOUT PROPYLENE GLYCOL” (BIOFRONTERA, INC., priority 2023, published 2026).

`NCC(=O)CCC(=O)O` [5-aminolevulinic acid]: the “octanol-water partition coefficient (logP)” value is given as “around −3”.
